This assay addresses human FXIa (Homo sapiens, UniProt P03951). Kind of assay: In vitro activated factor XI (FXIa) inhibition test. The format is biochemical. On the procedure:
To the substrate, S-2366 (pyroGlu-Pro-Arg-pNA•HCl) was added to a final concentration of 300 µmol/L. After the reaction had progressed, the absorbance at OD 405 nm was measured. […]

The mark [1] stands for this setting: 0.35 µg/mL human FXIa, substrate S-2366 300 µmol/L, 37°C, 10 minutes, OD 405 nm, read-out: FXIa inhibitory activity IC50.

Read-outs that look alike come from different tables or passages of the source.

Sequence of human FXIa (P03951 388-625 limits assumed): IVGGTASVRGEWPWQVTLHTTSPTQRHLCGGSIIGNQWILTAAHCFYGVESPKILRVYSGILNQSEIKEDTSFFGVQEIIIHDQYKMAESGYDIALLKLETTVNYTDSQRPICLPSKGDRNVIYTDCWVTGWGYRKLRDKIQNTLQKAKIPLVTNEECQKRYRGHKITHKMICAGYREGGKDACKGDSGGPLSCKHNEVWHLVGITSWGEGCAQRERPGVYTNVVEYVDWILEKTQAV
Sequence of human FXIa (P03951 19-387 partner limits assumed): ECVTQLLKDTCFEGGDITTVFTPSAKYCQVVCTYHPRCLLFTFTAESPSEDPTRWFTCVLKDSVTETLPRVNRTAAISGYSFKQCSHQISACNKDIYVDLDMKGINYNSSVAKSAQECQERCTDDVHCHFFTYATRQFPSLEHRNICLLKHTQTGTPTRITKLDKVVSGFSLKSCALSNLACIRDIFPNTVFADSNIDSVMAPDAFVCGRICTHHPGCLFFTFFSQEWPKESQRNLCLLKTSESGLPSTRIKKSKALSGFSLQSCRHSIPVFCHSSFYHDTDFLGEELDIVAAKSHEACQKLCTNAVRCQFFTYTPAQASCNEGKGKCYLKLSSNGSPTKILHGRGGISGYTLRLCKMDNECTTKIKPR

For the compound `N[C@H](CF)[C@H]1CC[C@H](C(=O)N2CC[C@@H](C3CCCCC3)[C@H]2C(=O)Nc2ccc(C(=O)NCc3ccccn3)cc2)CC1` [compound 137], the 50% inhibitory concentration (IC50) was 380 nM.

`N[C@H](CF)[C@H]1CC[C@H](C(=O)N2CC[C@@H](C3CCCCC3)[C@H]2C(=O)Nc2ccc(C(=O)O)cc2)CC1` [compound 96]: under setting [1], the IC50 is 98 nM.

As for `CS(=O)(=O)NC(=O)c1cc2cc(NC(=O)[C@@H]3[C@H](C4CCCCC4)CCN3C(=O)[C@H]3CC[C@H]([C@H](N)CF)CC3)ccc2[nH]1` [compound 114], the IC50 under setting [1] came out at 7 nM.

As for `NC[C@H]1CC[C@H](C(=O)N2CC[C@@H](c3ccccc3)[C@H]2C(=O)Nc2ccc(-c3nc(=O)o[nH]3)c(F)c2)CC1` [compound 14], under setting [1], the IC50 was 130 nM.

Turning to `N[C@H](CF)[C@H]1CC[C@H](C(=O)N2CC[C@@H](C3CCCCC3)[C@H]2C(=O)Nc2ccc3oc(C(=O)NS(=O)(=O)c4ccccc4)cc3c2)CC1` [compound 121], half-maximal inhibition (IC50) required 43 nM.

`COCCOCCCOC(=O)c1cc2cc(NC(=O)[C@@H]3[C@H](C4CCC(OC)CC4)CCN3C(=O)[C@H]3CC[C@H]([C@H](N)CF)CC3)ccc2o1` (stereo partly drawn) [compound 196] returned an IC50 of 3500 nM.

As to `Cn1c(C(=O)O)cc2cc(NC(=O)[C@@H]3[C@H](C4CCCCC4)CCN3C(=O)[C@H]3CC[C@H](C(N)CF)CC3)ccc21` (stereo partly drawn) [compound 29], the IC50 under setting [1] stood at 82 nM.

For the compound `NC(CF)[C@H]1CC[C@H](C(=O)N2CC[C@@H](C3CCCCC3)[C@H]2C(=O)Nc2ccc3[nH]c(C(=O)O)c(Cl)c3c2)CC1` (stereo partly drawn) [compound 34], under setting [1], the IC50 turned out to be 28 nM.

Take `Cc1noc(-c2ccc(NC(=O)[C@@H]3[C@H](C4CCCCC4)CCN3C(=O)[C@H]3CC[C@H]([C@H](N)CF)CC3)cc2)n1` [compound 115]: the IC50 under setting [1] came out at 1500 nM.

The compound `N[C@H](CF)[C@H]1CC[C@H](C(=O)N2CC[C@@H](C3CCCCC3)[C@H]2C(=O)Nc2ccc(C(=O)NS(=O)(=O)c3ccccn3)cc2)CC1` [compound 134] showed a 50% inhibitory concentration (IC50) of 54 nM.

Consider `Cc1c(C(=O)O)oc2ccc(NC(=O)[C@@H]3[C@H](C4CCCCC4)CCN3C(=O)[C@H]3CC[C@H]([C@H](N)CF)CC3)cc12` [compound 55], for which, under setting [1], the IC50 was found to be 220 nM.

For the compound `N[C@H](CF)[C@H]1CC[C@H](C(=O)N2CC[C@@H](C3CCCCC3)[C@H]2C(=O)Nc2ccc3oc(C(=O)NS(=O)(=O)N4CCOCC4)cc3c2)CC1` [compound 212], the midpoint of inhibition, the IC50, lay at 8 nM.

`COC1CCC([C@@H]2CCN(C(=O)[C@H]3CC[C@H]([C@H](N)CF)CC3)[C@@H]2C(=O)Nc2ccc3oc(C(=O)O)cc3c2)CC1` (stereo partly drawn) [compound 102] had an IC50 of 93 nM.

`N[C@H](CF)[C@H]1CC[C@H](C(=O)N2CCC(C3CCCCC3)[C@H]2C(=O)Nc2ccc3sc(C(=O)O)cc3c2)CC1` (single isomer, unassigned) [compound 130] showed an IC50 of 195 nM.

Turning to `N[C@H](C(F)F)[C@H]1CC[C@H](C(=O)N2CC[C@@H](C3CCCCC3)[C@H]2C(=O)Nc2ccc3oc(C(=O)O)cc3c2)CC1` [compound 146], the IC50 under setting [1] was found to be 916 nM.

Regarding `NC[C@H]1CC[C@H](C(=O)N2CCC(c3ccccc3)[C@H]2C(=O)Nc2ccc3[nH]c(C(N)=O)cc3c2)CC1` (stereo partly drawn) [compound 24], the IC50 under setting [1] was 34 nM.

With `NC(CF)[C@H]1CC[C@H](C(=O)N2CC[C@@H](C3CCCCC3)[C@H]2C(=O)Nc2ccc3[nH]c(C(=O)O)cc3c2)CC1` (stereo partly drawn) [compound 35], under setting [1], the IC50 is 14 nM.

As to `N[C@H](CF)[C@H]1CC[C@H](C(=O)N2CC[C@@H](C3CCCCC3)[C@H]2C(=O)Nc2ccc3[nH]c(C(=O)NS(=O)(=O)N4CCCCC4)cc3c2)CC1` [compound 213], the concentration for half-maximal inhibition (IC50) under setting [1] was found to be 10 nM.

Consider `N[C@H](CF)[C@H]1CC[C@H](C(=O)N2CC[C@@H](C3CCCCC3)[C@H]2C(=O)Nc2ccc(C(=O)NS(=O)(=O)c3ccccc3)cc2)CC1` [compound 118], for which the IC50 came to 65 nM.

With `COC(=O)Nc1nc2ccc(NC(=O)[C@@H]3[C@H](C4CCCCC4)CCN3C(=O)[C@H]3CC[C@H]([C@H](N)CF)CC3)cc2s1` [compound 148], the IC50 under setting [1] was 140 nM.

With `N[C@H](CF)[C@H]1CC[C@H](C(=O)N2CC[C@H](c3ccccc3)[C@H]2C(=O)Nc2ccc3[nH]c(C(=O)NS(=O)(=O)N4CCOCC4)cc3c2)CC1` [compound 122], inhibition was half-maximal at 690 nM (IC50).

Regarding `COC1CCC([C@@H]2CCN(C(=O)[C@H]3CC[C@H]([C@H](N)CF)CC3)[C@@H]2C(=O)Nc2ccc3oc(C(=O)O)cc3c2)CC1` (stereo partly drawn) [compound 103], under setting [1], the IC50 is 2350 nM.

Regarding `CN(C)S(=O)(=O)NC(=O)c1cc2cc(NC(=O)[C@@H]3[C@H](C4CCCCC4)CCN3C(=O)[C@H]3CC[C@H]([C@H](N)CF)CC3)ccc2o1` [compound 211], the IC50 under setting [1] was 29 nM.

In the case of `COC1CCC([C@H]2CCN(C(=O)[C@H]3CC[C@H]([C@H](N)CF)CC3)[C@H]2C(=O)Nc2ccc3oc(C(=O)O)cc3c2)CC1` (stereo partly drawn) [compound 187], inhibition was half-maximal at 285 nM (IC50).

As to `NC(CF)[C@H]1CC[C@H](C(=O)N2CC[C@@H](C3CCCCC3)[C@H]2C(=O)Nc2ccc3oc(C(=O)O)cc3c2)CC1` (stereo partly drawn) [compound 50], the half-inhibitory concentration (IC50) amounted to 84 nM.

With `N[C@H](CF)[C@H]1CC[C@H](C(=O)N2CC[C@@H](C3CCCCC3)[C@H]2C(=O)Nc2ccc3[nH]c(C(=O)O)c(Cl)c3c2)CC1` [compound 184], the IC50 under setting [1] worked out at 30 nM.

With `N[C@H](CF)[C@H]1CC[C@H](C(=O)N2CC[C@@H](C3CCCCC3)[C@H]2C(=O)Nc2ccc(C(=O)NS(=O)(=O)c3ccccc3)c(F)c2)CC1` [compound 133], under setting [1], the IC50 was found to be 99 nM.

For `CC(N)[C@H]1CC[C@H](C(=O)N2CC[C@H](c3ccccc3)[C@H]2C(=O)Nc2ccc3oc(C(=O)O)cc3c2)CC1` (stereo partly drawn) [compound 46], the IC50 under setting [1] was determined as 90 nM.

Take `CS(=O)(=O)NC(=O)c1ccc(NC(=O)[C@@H]2[C@H](C3CCCCC3)CCN2C(=O)[C@H]2CC[C@H]([C@H](N)CF)CC2)cc1` [compound 147]: the half-inhibitory concentration (IC50) under setting [1] was 205 nM.

As to `Cc1c(C(=O)O)[nH]c2ccc(NC(=O)[C@@H]3[C@H](C4CCCCC4)CCN3C(=O)[C@H]3CC[C@H](C(N)CF)CC3)cc12` (stereo partly drawn) [compound 39], the IC50 under setting [1] is 63 nM.

The IC50 is the concentration that gives 50% inhibition.

These data come from EP2876105A1, “1-(CYCLOALKYL-CARBONYL)PROLINE DERIVATIVE” (Sumitomo Dainippon Pharma Co., Ltd., priority 2012, dated 2014).
